We go through 24 molecules from ChEMBL document CHEMBL1159161, “Synthesis and biological activities of truncated acridone: Structure-activity relationship studies of cytotoxic 5-hydroxy-4-quinolone” (Bioorg Med Chem Lett, 1997).

The structures appear in SMILES notation. pIC50: −log10 of the molar value. A value given as a limit tells only on which side of the number the result lay.

Test [1] relates to Human alphaherpesvirus 2. Put plainly: Antiviral activity against herpes simplex virus-2. It is filed as functional, organism-based.
Test [2] concerns HL-60. Briefly: In vitro antitumor activity against HL60 (Human leukemia) cells. It is filed as functional, cell-based.
For test [3], the system named is L1210. Put plainly: In vitro antitumor activity against L1210 (murine leukemia) cells. The conditions noted are these: Mus musculus. It counts as functional, cell-based.
Test [4] has as its system Human alphaherpesvirus 1. Briefly: Antiviral activity against herpes simplex virus-1. It is filed as functional, organism-based.

As a reminder, the pIC50 is the negative decadic logarithm of the IC50, by convention in mol/L. Lower therefore signals a large IC50.

For `COc1cc2c(c(O)c1OC)c(=O)ccn2C`, the pIC50 is less than 4.00 in test [1], less than 4.52 in test [2], less than 4.40 in test [3] and less than 4.00 in test [4].
Regarding `COc1cc(O)c2c(O)ccnc2c1`, the pIC50 in test [2] is less than 4.52; in test [3], less than 4.40.
On to `COc1cc2c(c(OC)c1OC)c(=O)ccn2C`, for which the pIC50 in test [1] was less than 4.00; in test [2] it was less than 4.52; in test [3], less than 4.40; in test [4], less than 4.00.
With `COc1ccc2c(O)ccnc2c1`, the pIC50 in test [1] is less than 4.00; in test [2], less than 4.52; in test [3] it was less than 4.40; in test [4], less than 4.00.
For the molecule `COc1cc2c(=O)ccn(C)c2cc1OC`, the pIC50 in test [1] is less than 4.00; in test [2], less than 4.52; in test [3], less than 4.40; in test [4], less than 4.00.
Take `COc1cc(OC)c2c(=O)cc[nH]c2c1`: the pIC50 was less than 4.52 in test [2] and less than 4.40 in test [3].
For the molecule `COc1cc2nccc(O)c2c(OC)c1OC`, the pIC50 in test [1] was less than 4.00; in test [2] it was less than 4.52; in test [3] it was less than 4.40; in test [4], less than 4.00.
`COc1ccc(O)c2c(O)ccnc12`: the results for the pIC50 in test [1], in test [2] and in test [4] were less than 4.00, 4.75 and 4.08, respectively.
Turning to `Nc1nc2c(ncn2COCCO)c(=O)[nH]1` [ACYCLOVIR], the pIC50 in test [1] was 5.68; in test [4], 6.70.
As to `COc1cc(C(F)(F)F)cc2nccc(O)c12`, the pIC50 was less than 4.00 in test [1], less than 4.52 in test [2], less than 4.40 in test [3] and less than 4.00 in test [4].
In the case of `COc1c(OC)c(OC)c2c(c1O)c(=O)c1ccc(O)c(OC)c1n2C` [GLYFOLINE], the pIC50 in test [2] is 5.85; in test [3], 4.58.
Consider `COc1cc2nccc(O)c2cc1OC`, for which the pIC50 in test [1] is less than 4.00; in test [2], less than 4.52; in test [3], less than 4.40; in test [4] it was less than 4.00.
For `COc1cc2c(O)ccnc2cc1O`, the pIC50 in test [1] is less than 4.00; in test [2], less than 4.52; in test [3], less than 4.40; in test [4], less than 4.00.
For `COc1cc(OC)c2c(=O)ccn(C)c2c1`, the pIC50 in test [1] was less than 4.00; in test [2], less than 4.52; in test [3] it was less than 4.40; in test [4] it was less than 4.00.
For `Oc1cccc2nccc(O)c12`, the pIC50 in test [1] is 4.08; in test [2], less than 4.52; in test [3], less than 4.40; in test [4], 4.27.
For `COc1cc(C(F)(F)F)c2c(O)ccnc2c1`, the pIC50 in test [1] was 4.53; in test [2] it was less than 4.52; in test [3], less than 4.40; in test [4] it was 4.53.
Regarding `COc1ccc(O)c2c(=O)ccn(C)c12`, the pIC50 in test [1] was less than 4.00; in test [2] it was less than 4.52; in test [3] it was less than 4.40; in test [4] it was less than 4.00.
`Oc1ccnc2cc(C(F)(F)F)cc(O)c12`: the pIC50 in test [2] is less than 4.52; in test [3], less than 4.40.
In the case of `COc1ccc(OC)c2c(O)ccnc12`, the pIC50 was less than 4.00 in test [1], less than 4.52 in test [2], less than 4.40 in test [3] and less than 4.00 in test [4].
On to `COc1ccc(C)c2nccc(O)c12`, for which the pIC50 in test [1] was less than 4.00; in test [2] it was less than 4.52; in test [3], less than 4.40; in test [4] it was less than 4.00.
As for `Cc1ccc(O)c2c(O)ccnc12`, the pIC50 is less than 4.00 in test [1], less than 4.52 in test [2], less than 4.40 in test [3] and 4.57 in test [4].
Consider `COc1cc2nccc(O)c2c(O)c1OC`, for which the pIC50 in test [1] was less than 4.00; in test [2], less than 4.52; in test [3], less than 4.40; in test [4], less than 4.00.
Consider `COc1ccc(Cl)c2nccc(O)c12`, for which the pIC50 in test [1] was less than 4.00; in test [2], less than 4.52; in test [3], less than 4.40; in test [4], less than 4.00.
For `Nc1ccn([C@@H]2O[C@H](CO)[C@@H](O)[C@@H]2O)c(=O)n1` [CYTARABINE], the values for the pIC50 in test [1] and in test [4] were 5.70 and 6.52, respectively.
